Reference: patent US20150209327A1, “METHODS FOR THE TREATMENT OF OBESITY USING APREMILAST” (Celgene Corporation, priority 2014, published 2015)

What was measured:
PDE3 = PDE3 enzyme assay; type: biochemical; settings: at 10 μM
Protocol: (§1) PDE1, 2, 3 and 5 enzyme assays were prepared as described by Hidaka and Asano. Biochem. Biophys. Acta., 1976, 429:485; see also Nicholsen et al., Trends Pharmaco. Sci., 1991, 12:19. The PDE6 enzyme assay was prepared according to Baehr et al., J. Biol. Chem., 1979, 254:11669 and Gillespie et al., Mol. Pharm., 1989, 36: 773. The PDE7 enzyme assay was prepared according to Bloom and Beavo. Proc. Natl. Acad. Sci. USA, 1996, 93:14188-92.

PDE1 = PDE1 enzyme assay; type: biochemical; settings: at 10 μM
Protocol: as §1

PDE6 = biological target: T1, PDE6 (Bos taurus, UniProt P11541+P23439); test: PDE6 enzyme assay; type: biochemical
T1 sequence (P11541 1-859): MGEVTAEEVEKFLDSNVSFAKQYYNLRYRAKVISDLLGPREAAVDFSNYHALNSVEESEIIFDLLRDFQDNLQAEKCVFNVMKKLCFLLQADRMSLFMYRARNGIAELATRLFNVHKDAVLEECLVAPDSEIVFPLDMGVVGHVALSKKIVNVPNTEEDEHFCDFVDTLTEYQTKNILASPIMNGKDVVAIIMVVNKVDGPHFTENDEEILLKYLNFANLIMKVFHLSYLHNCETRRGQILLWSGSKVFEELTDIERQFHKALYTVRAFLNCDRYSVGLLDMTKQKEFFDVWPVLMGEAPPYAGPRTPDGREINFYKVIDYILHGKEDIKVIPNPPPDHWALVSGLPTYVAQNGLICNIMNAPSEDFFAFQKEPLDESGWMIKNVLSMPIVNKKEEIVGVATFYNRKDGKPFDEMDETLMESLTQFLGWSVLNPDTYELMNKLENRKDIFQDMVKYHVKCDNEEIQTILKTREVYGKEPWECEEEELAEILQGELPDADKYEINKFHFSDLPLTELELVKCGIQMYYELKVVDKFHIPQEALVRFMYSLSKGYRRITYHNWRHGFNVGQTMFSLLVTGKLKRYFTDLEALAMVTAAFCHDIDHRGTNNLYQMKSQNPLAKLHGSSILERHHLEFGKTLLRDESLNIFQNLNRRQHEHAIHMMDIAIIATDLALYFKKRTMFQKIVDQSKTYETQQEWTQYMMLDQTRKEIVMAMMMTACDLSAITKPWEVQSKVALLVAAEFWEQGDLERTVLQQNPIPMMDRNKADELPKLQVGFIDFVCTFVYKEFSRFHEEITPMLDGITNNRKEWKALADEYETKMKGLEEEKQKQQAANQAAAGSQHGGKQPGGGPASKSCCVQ
T1 sequence (P23439 1-853): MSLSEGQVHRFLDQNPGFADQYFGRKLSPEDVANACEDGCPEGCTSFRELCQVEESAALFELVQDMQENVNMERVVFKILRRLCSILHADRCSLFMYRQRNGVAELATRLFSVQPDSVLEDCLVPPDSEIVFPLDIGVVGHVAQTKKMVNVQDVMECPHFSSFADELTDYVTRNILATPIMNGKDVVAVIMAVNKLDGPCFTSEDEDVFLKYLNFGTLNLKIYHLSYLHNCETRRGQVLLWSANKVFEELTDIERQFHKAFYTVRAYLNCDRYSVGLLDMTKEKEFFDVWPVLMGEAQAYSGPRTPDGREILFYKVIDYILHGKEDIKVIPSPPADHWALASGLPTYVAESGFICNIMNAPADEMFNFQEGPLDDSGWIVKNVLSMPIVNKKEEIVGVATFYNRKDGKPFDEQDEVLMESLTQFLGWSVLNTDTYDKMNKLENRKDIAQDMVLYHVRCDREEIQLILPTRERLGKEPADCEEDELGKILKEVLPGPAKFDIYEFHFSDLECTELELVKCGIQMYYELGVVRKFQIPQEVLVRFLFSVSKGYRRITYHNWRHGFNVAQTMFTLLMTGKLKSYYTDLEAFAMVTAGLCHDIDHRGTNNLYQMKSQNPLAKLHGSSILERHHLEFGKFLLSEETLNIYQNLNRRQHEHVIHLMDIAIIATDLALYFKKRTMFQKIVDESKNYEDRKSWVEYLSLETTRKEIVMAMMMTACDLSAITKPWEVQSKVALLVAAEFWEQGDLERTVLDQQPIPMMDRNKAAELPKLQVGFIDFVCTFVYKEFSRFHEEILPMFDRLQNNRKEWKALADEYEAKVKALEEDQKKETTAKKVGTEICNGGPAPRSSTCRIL
Protocol: as §1

TNF-α production = test: Inhibition of TNF-α production in a mouse model; type: in vivo
Source text: The test methods were as described in WO 03/080049; Muller et al., J. Med. Chem., 1996, 39:3238; and Muller et al., Bioorg. Med. Chem. Lett., 1999, 9:1625-30.

CCOc1cc([C@@H](CS(C)(=O)=O)N2C(=O)c3cccc(NC(C)=O)c3C2=O)ccc1OC [Apremilast, (+)-2-[1-(3-ethoxy-4-methoxyphenyl)-2-methylsulfonylethyl]-4-acetylaminoisoindoline-1,3-dione] was tested, and the “% inhibition of PDE3” value (PDE3) was 20%, the “% inhibition of PDE1” value (PDE1) was 23% and the inhibition at 10 µM (PDE6) was -6%. For the same compound, the “EC50, inhibition of TNF-α production in a mouse model” value (TNF-α production) was 0.05 mg/kg.
